Measurements: publication PMC2818973 (Journal of medicinal chemistry, 2010)

Details: mouse, in vivo, iv

CC(=NNc1ccc(I)cn1)c1ccc2c(c1)C1C=CCC1C(c1cc3c(cc1Br)OCO3)N2 (stereo not shown) [Compound 9, N-{1-[4-(6-Bromo-benzo[1,3]dioxol-5-yl)-3a,4,5,9b-tetrahydro-3H-cyclopenta[c]quinolin-8-yl]-ethylidene}-N′-(5-iodo-pyridin-2-yl)-hydrazine]
metabolism and clearance (in words): rapidly metabolized and eliminated via the hepatobiliary system
